Measurements: US20240122957A1, “USE OF NICOTINAMIDE MONONUCLEOTIDE (NMN) FOR THE PREVENTION AND/OR TREATMENT OF RHEUMATOID ARTHRITIS, AND CORRESPONDING COMPOSITIONS” (NUVAMID SA, priority 2019, published 2024)
Entries after “also recorded” stand apart in the source; their conditions may differ. Read-outs that look alike come from different tables or passages of the source.

How the values were obtained:
[1] = test system: C57BL6/J mice treated with K/BxN serum (RA model); assay: K/BxN serum-induced RA model in mice (clinical score, paw thickness, paw photographs); type: in vivo
Experimental: Here, NMN was used in zwitterionic form. […] Dexamethasone was administered subcutaneously.

[2] = in vivo
Experimental: (§1) In brief, 8-week-old female C57BL6/J mice, weighing between 18-20 g on day 0 of the experiments, were divided into 4 group of 10 mice each: (i) a control group, in which the mice were treated with vehicle, i.e. a 0.9% NaCl solution (10 mL/kg), marked ‘Vehicle’; (ii) a group of mice treated with K/BxN serum (10 mL/kg), marked ‘KBxN’; (iii) a group of mice treated with K/BxN serum+dexamethasone (1 mg/kg), marked ‘KBxN+dexamethasone’; and (iv) a group of mice treated with K/BxN serum+NMN (185 mg/kg), marked ‘KBxN+NMN’.
(§2) The administration of this serum induced chronic joint inflammation in mice in order to mimic RA. […] Here, NMN was used in zwitterionic form. KBxN serum and NMN were administered intraperitoneally to the nice. Dexamethasone was administered subcutaneously.
(§3) The mice were treated for 9 days under the conditions set forth supra. Photos of the paws of the mice were taken on the 6th day of treatment. […] The clinical score and weight of the mice were measured daily. The clinical score was determined by measuring the thickness of each of the front and rear paws of the mice, and adding the associated score according to table 1 infra:
(§4) The statistical analysis of the results was carried out using two-factor ANOVA combined with the Dunnett multiple comparison test.

[3] = Weight and tolerance of mice in the K/BxN serum RA model
Experimental: as §1, §2, §3, §4

Row | Compound | paw swelling (photographs of the paws) ([1]; day 6 of treatment, compared to mouse treated with K/BxN, FIG. 4) | average paw thickness (ankle joint inflammation) ([1]; versus KBxN group, NMN 185 mg/kg intraperitoneally, dexamethasone 1 mg/kg subcutaneously, FIG. 3) | average clinical score ([1]; versus KBxN group, NMN 185 mg/kg intraperitoneally, dexamethasone 1 mg/kg subcutaneously, measured daily, 9 days, FIG. 2) | paw appearance compared to mouse treated with vehicle (photographs) [2] | tolerance ([3]; K/BxN serum-treated mice, NMN 185 mg/kg intraperitoneally, 9 days, FIG. 1) | paw appearance compared to mouse treated with vehicle (photographs) ([3]; day 6 of treatment, FIG. 4) | average weight of mice (weight loss) ([3]; relative to KBxN group, NMN 185 mg/kg intraperitoneally, dexamethasone 1 mg/kg subcutaneously, 9 days, FIG. 1)
1 | NC(=O)c1ccc[n+]([C@@H]2O[C@H](COP(=O)([O-])O)[C@@H](O)[C@H]2O)c1 [NMN, nicotinamide mononucleotide] | substantially reduces paw swelling | significantly reduced ankle joint inflammation starting on day 5 | significant reduction in clinical score starting on day 5; also recorded: pronounced starting on day 8 | volume similar to that of the mouse treated with vehicle | well tolerated |  | 
2 | C[C@@H]1C[C@H]2[C@@H]3CCC4=CC(=O)C=C[C@]4(C)[C@@]3(F)[C@@H](O)C[C@]2(C)[C@@]1(O)C(=O)CO [dexamethasone] |  |  |  |  |  | much more slender than that of the mouse treated with vehicle | additional and significant weight loss
